Toxic doses and inconclusive results are not listed. Rule as the data show it: active = T/C of 150% or more; inactive = T/C below 125%.
System: L1210 leukemia ip in BDF1 mice, survival T/C
Assay: NCI In Vivo Anticancer Drug Screen. Data for tumor model L1210 Leukemia (intraperitoneal) in B6D2F1 (BDF1) mice
Conditions: endpoint: mean survival time, higher = longer survival
Summary of the method: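 Survival endpoint. Drug-treated group vs vehicle group, expressed as T divided by C. Tumor passaged by transplantation.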

[1] = dose: 100.0 mg/kg/injection, schedule: Q01DX001 (ip), vehicle: saline
[2] = dose: 200.0 mg/kg/injection, schedule: Q01DX001 (ip), vehicle: saline
[3] = dose: 400.0 mg/kg/injection, schedule: Q01DX001 (ip), vehicle: saline
[4] = dose: 100.0 mg/kg/injection, schedule: Q01DX001 (ip), vehicle: carboxymethylcellulose (CMC)
[5] = dose: 100.0 mg/kg/injection, schedule: Q04DX002 (ip), vehicle: Klucel (hydroxypropylcellulose) (HPC)
[6] = dose: 200.0 mg/kg/injection, schedule: Q04DX002 (ip), vehicle: Klucel (hydroxypropylcellulose) (HPC)
[7] = dose: 400.0 mg/kg/injection, schedule: Q04DX002 (ip), vehicle: Klucel (hydroxypropylcellulose) (HPC)
[8] = dose: 50.0 mg/kg/injection, schedule: Q01DX001 (ip), vehicle: saline

Measured: T/C

CCC(C(=O)O)C(C)(C)O (stereo not given)
inactive: [1] 93 % of control | [2] 93 % of control | [3] 103 % of control

COC(=O)C1CCCN1C(=O)C(C)=O (stereo not given)
inactive: dose: 100.0 mg/kg/injection, schedule: Q04DX002 (ip), vehicle: saline 102 % of control | dose: 200.0 mg/kg/injection, schedule: Q04DX002 (ip), vehicle: saline 94 % of control | dose: 400.0 mg/kg/injection, schedule: Q04DX002 (ip), vehicle: saline 113 % of control

O=P1(N(CCF)CCF)NCCCO1 (stereo not given)
inactive: dose: 2.5 mg/kg/injection, schedule: Q01DX Z (ip), vehicle: saline 96 % of control | dose: 5.0 mg/kg/injection, schedule: Q01DX Z (ip), vehicle: saline 91 % of control | dose: 10.0 mg/kg/injection, schedule: Q01DX Z (ip), vehicle: other 93 % of control | dose: 10.0 mg/kg/injection, schedule: Q01DX Z (ip), vehicle: saline 115 % of control | dose: 30.0 mg/kg/injection, schedule: Q01DX Z (ip), vehicle: other 106 % of control

O=C(NNCN1C(=O)c2ccccc2C1=O)c1ccccc1
inactive: dose: 200.0 mg/kg/injection, schedule: Q01DX009 (ip), vehicle: saline with Tween-80 90 % of control

CC1(C)OC(CF)C2OC(C)(C)OC(CF)C2O1 (stereo not given)
inactive: dose: 56.25 mg/kg/injection, schedule: Q01DX009 (ip), vehicle: carboxymethylcellulose (CMC) 95 % of control | [4] 96 % of control | dose: 112.5 mg/kg/injection, schedule: Q01DX009 (ip), vehicle: carboxymethylcellulose (CMC) 102 % of control | dose: 200.0 mg/kg/injection, schedule: Q01DX001 (ip), vehicle: carboxymethylcellulose (CMC) 96 % of control | dose: 400.0 mg/kg/injection, schedule: Q01DX001 (ip), vehicle: carboxymethylcellulose (CMC) 104 % of control

O=C(Cl)C(=O)c1c[nH]c2ccccc12
inactive: [5] 101 % of control | [6] 101 % of control | [7] 95 % of control

N#Cc1ccc(C(CCCCC(Cc2ccccc2)c2ccc(C#N)cc2)Cc2ccccc2)cc1 (stereo not given)
inactive: [8] 93 % of control | [2] 102 % of control | [3] 104 % of control

COc1cc(NCc2ccccc2)ccc1NC(C)=O
inactive: dose: 15.0 mg/kg/injection, schedule: Q01DX001 (ip), vehicle: carboxymethylcellulose (CMC) 98 % of control | dose: 30.0 mg/kg/injection, schedule: Q01DX001 (ip), vehicle: carboxymethylcellulose (CMC) 110 % of control | dose: 75.0 mg/kg/injection, schedule: Q01DX001 (ip), vehicle: carboxymethylcellulose (CMC) 98 % of control

O=P(Nc1ccccc1)(Nc1ccccc1)Nc1ccccc1
inactive: dose: 50.0 mg/kg/injection, schedule: Q04DX002 (ip), vehicle: gum acacia 95 % of control | dose: 100.0 mg/kg/injection, schedule: Q01DX009 (ip), vehicle: gum acacia 100 % of control | dose: 100.0 mg/kg/injection, schedule: Q04DX002 (ip), vehicle: gum acacia 95 % of control | dose: 200.0 mg/kg/injection, schedule: Q01DX009 (ip), vehicle: gum acacia 97 % of control | dose: 200.0 mg/kg/injection, schedule: Q04DX002 (ip), vehicle: gum acacia 92 % of control | dose: 400.0 mg/kg/injection, schedule: Q01DX009 (ip), vehicle: gum acacia 89 % of control

Cc1ccc(CSC(=N)N)cc1
inactive: [4] 104 % of control

CC(=O)OCCc1ccc2c(c1)OCO2
inactive: [5] 97 % of control | [6] 112 % of control | [7] 115 % of control

CSc1nc(SC)c2c(ncn2C2OC(CO)C(O)C2O)n1 (stereo not given)
inactive: [8] 111 % of control | [1] 102 % of control | [2] 104 % of control

ClC(Cl)(Cl)C1OCOC(C(Cl)(Cl)Cl)O1 (stereo not given)
inactive: dose: 100.0 mg/kg/injection, schedule: Q04DX003 (ip), vehicle: saline with Tween-80 98 % of control | dose: 200.0 mg/kg/injection, schedule: Q04DX003 (ip), vehicle: saline with Tween-80 96 % of control | dose: 400.0 mg/kg/injection, schedule: Q04DX003 (ip), vehicle: saline with Tween-80 101 % of control

O=C(O)c1c2ccc(=O)cc-2oc2cc(O)ccc12
inactive: dose: 100.0 mg/kg/injection, schedule: Q04DX003 (ip), vehicle: Klucel (hydroxypropylcellulose) (HPC) 92 % of control | dose: 200.0 mg/kg/injection, schedule: Q04DX003 (ip), vehicle: Klucel (hydroxypropylcellulose) (HPC) 92 % of control | dose: 400.0 mg/kg/injection, schedule: Q04DX003 (ip), vehicle: Klucel (hydroxypropylcellulose) (HPC) 89 % of control
